The source of these data is ChEMBL document CHEMBL3045468, “I2 catalyzed FriedelCrafts alkylation reaction of substituted anilines with ninhydrin: formation of novel products and their antimicrobial evaluation” (2013).

Converted amounts (≈) assume the structure as drawn. The source made the active and inactive calls. The rule behind the calls is not given here.

The subject of assay [1] is Cryptococcus neoformans. Briefly: Antifungal activity against Cryptococcus neoformans clinical isolate assessed as growth inhibition after 96 hr by agar dilution method. It counts as functional. (In general: Agar dilution tests growth on a series of plates holding different concentrations.)
Assay [2] relates to Candida tropicalis. Briefly: Antifungal activity against Candida tropicalis clinical isolate assessed as growth inhibition after 96 hr by agar dilution method. In kind it is functional.
The test system of assay [3] is Candida albicans. The experiment in a line: Antifungal activity against Candida albicans clinical isolate assessed as growth inhibition after 96 hr by agar dilution method. In kind it is functional.
Assay [4] has as its system Aspergillus niger. The experiment in a line: Antifungal activity against Aspergillus niger clinical isolate assessed as growth inhibition after 96 hr by agar dilution method. In kind it is functional.
For assay [5], the system named is Pseudomonas aeruginosa. Briefly: Antibacterial activity against Pseudomonas aeruginosa 71 clinical isolate assessed as growth inhibition at 1 mg/ml after 24 hr by NCCLS agar diffusion method. It counts as functional. On the technique in general: In agar diffusion tests the substance spreads into inoculated agar from a disc or well.
Assay [6] has as its system Bacillus pumilus. The experiment in a line: Antibacterial activity against Bacillus pumilus 11778 clinical isolate assessed as growth inhibition at 1 mg/ml after 24 hr by NCCLS agar diffusion method. It counts as functional. To be noted: for zone of inhibition at 1000 µg/mL: Bacillus pumilus, 11778, 24 h, read-out: DIZ.
Assay [7] relates to Escherichia coli. Briefly: Antibacterial activity against Escherichia coli 319 clinical isolate assessed as growth inhibition at 1 mg/ml after 24 hr by NCCLS agar diffusion method. It counts as functional. To be noted: for zone of inhibition at 1000 µg/mL: Escherichia coli, 319, 24 h, read-out: DIZ.
The next assay concerns Micrococcus luteus. The experiment in a line: Antibacterial activity against Micrococcus luteus ATCC 9341 clinical isolate assessed as growth inhibition at 1 mg/ml after 24 hr by NCCLS agar diffusion method. It counts as functional.
For assay [8], the system named is Shigella dysenteriae. Briefly: Antibacterial activity against Shigella dysenteriae 15 clinical isolate assessed as growth inhibition at 1 mg/ml after 24 hr by NCCLS agar diffusion method. To be noted: for zone of inhibition at 1000 µg/mL: Shigella dysenteriae, 15, 24 h, read-out: DIZ. It counts as functional.
The test system of assay [9] is Staphylococcus aureus. The experiment in a line: Antibacterial activity against Staphylococcus aureus 29737 clinical isolate assessed as growth inhibition at 1 mg/ml after 24 hr by NCCLS agar diffusion method. It counts as functional.
In assay [10] the test system is Candida tropicalis. Briefly: Antifungal activity against Candida tropicalis clinical isolate assessed as growth inhibition at 1 mg/ml after 96 hr by NCCLS agar diffusion method. In kind it is functional. To be noted: read-out: DIZ.
In assay [11] the test system is Candida albicans. Briefly: Antifungal activity against Candida albicans clinical isolate assessed as growth inhibition at 1 mg/ml after 96 hr by NCCLS agar diffusion method. To be noted: read-out: DIZ. It counts as functional.
Assay [12] deals with Aspergillus niger. Briefly: Antifungal activity against Aspergillus niger clinical isolate assessed as growth inhibition at 1 mg/ml after 96 hr by NCCLS agar diffusion method. It counts as functional. To be noted: read-out: DIZ.
The subject of assay [13] is Escherichia coli. Briefly: Antibacterial activity against Escherichia coli 319 clinical isolate assessed as morphological changes at MIC after 24 hr by scanning electron microscopic analysis. In kind it is functional, organism-based.
Assay [14] concerns Vibrio cholerae. Briefly: Bactericidal activity against Vibrio cholerae 759 clinical isolate assessed as reduction of viable CFU count at MIC measured up to 48 hr relative to untreated control. It counts as functional, organism-based.
Assay [15] concerns Escherichia coli. The experiment in a line: Bactericidal activity against Escherichia coli 319 clinical isolate assessed as reduction of viable CFU count at MIC measured up to 48 hr relative to untreated control. In kind it is functional, organism-based.
Assay [16] has as its system Klebsiella pneumoniae. The experiment in a line: Antibacterial activity against Klebsiella pneumoniae J/I/4 clinical isolate assessed as growth inhibition at 1 mg/ml after 24 hr by NCCLS agar diffusion method. It counts as functional. To be noted: for zone of inhibition at 1000 µg/mL: J/I/4, 24 h, read-out: DIZ.
Assay [17] concerns Vibrio cholerae. Briefly: Antibacterial activity against Vibrio cholerae 759 clinical isolate assessed as growth inhibition at 1 mg/ml after 24 hr by NCCLS agar diffusion method. It counts as functional. To be noted: Vibrio cholerae, 759, 24 h; read-out: DIZ.
For assay [18], the system named is Cryptococcus neoformans. The experiment in a line: Antifungal activity against Cryptococcus neoformans clinical isolate assessed as growth inhibition at 1 mg/ml after 96 hr by NCCLS agar diffusion method. To be noted: read-out: DIZ. It counts as functional.
The test system of assay [19] is Klebsiella pneumoniae. The experiment in a line: Antibacterial activity against Klebsiella pneumoniae J/I/4 clinical isolate assessed as growth inhibition after 24 hr by agar dilution method. It counts as functional.
Assay [20] has as its system Vibrio cholerae. Briefly: Antibacterial activity against Vibrio cholerae 759 clinical isolate assessed as growth inhibition after 24 hr by agar dilution method. In kind it is functional.
The subject of assay [21] is Pseudomonas aeruginosa. The experiment in a line: Antibacterial activity against Pseudomonas aeruginosa 71 clinical isolate assessed as growth inhibition after 24 hr by agar dilution method. It counts as functional.
Assay [22] concerns Escherichia coli. Briefly: Antibacterial activity against Escherichia coli 319 clinical isolate assessed as growth inhibition after 24 hr by agar dilution method. In kind it is functional.
The subject of assay [23] is Shigella dysenteriae. The experiment in a line: Antibacterial activity against Shigella dysenteriae 15 clinical isolate assessed as growth inhibition after 24 hr by agar dilution method. It counts as functional.
Assay [24] concerns Staphylococcus aureus. Briefly: Antibacterial activity against Staphylococcus aureus 29737 clinical isolate assessed as growth inhibition after 24 hr by agar dilution method. It counts as functional.
The subject of assay [25] is Bacillus pumilus. Briefly: Antibacterial activity against Bacillus pumilus 11778 clinical isolate assessed as growth inhibition after 24 hr by agar dilution method. In kind it is functional. To be noted: Bacillus pumilus, 11778, 24 h.

Take `OC(Cn1cncn1)(Cn1cncn1)c1ccc(F)cc1F` [FLUCONAZOLE]: the MIC (in general, the lowest concentration found to suppress growth) in the assay with Cryptococcus neoformans [1] was found to be 8 µg/mL (≈ 26.1 µM); in the assay with Candida tropicalis [2] it was 8 µg/mL (≈ 26.1 µM); with Candida albicans [3], 4 µg/mL (≈ 13.1 µM); in the assay on Aspergillus niger [4], 10 µg/mL (≈ 32.7 µM).
With `Cc1cc(C2(c3ccc(N)c(C)c3)C(=O)c3ccccc3C2=O)ccc1N`, the “growth inhibition (GI)” value in the assay on Pseudomonas aeruginosa [5], with Micrococcus luteus, with Staphylococcus aureus [9] and in the assay on Klebsiella pneumoniae [16] was “inactive” in each case. Also, the zone of inhibition at 1000 µg/mL in the assay on Bacillus pumilus [6] came out at 7 mm; in the assay with Escherichia coli [7], 7 mm; in the assay with Shigella dysenteriae [8] it was 7 mm; in the assay on Candida tropicalis [10], 8 mm; with Candida albicans [11], 10 mm; in the assay on Aspergillus niger [12], 7.6 mm. Besides, the zone of inhibition at 1000 µg/mL with Vibrio cholerae [17] amounted to 8 mm. Besides, the results for the minimum inhibitory concentration (MIC) in the assay with Candida tropicalis [2], in the assay with Candida albicans [3] and in the assay on Aspergillus niger [4] were 2000 µg/mL (≈ 5610 µM), 1000 µg/mL (≈ 2810 µM) and 1000 µg/mL (≈ 2810 µM), respectively. Also, the result in the assay on Escherichia coli [13], in the assay with Vibrio cholerae [14] and in the assay with Escherichia coli [15] was Active.
Regarding `Nc1c(Cl)cc(Cl)cc1C1(Nc2ccc(Cl)cc2Cl)C(=O)c2ccccc2C1=O`, the “growth inhibition (GI)” value in the assay on Pseudomonas aeruginosa [5], in the assay with Bacillus pumilus [6], in the assay with Micrococcus luteus and in the assay with Staphylococcus aureus [9] was “inactive” in each case. Moreover, the zone of inhibition at 1000 µg/mL in the assay with Escherichia coli [7] turned out to be 8 mm; in the assay on Shigella dysenteriae [8], 7 mm; in the assay with Cryptococcus neoformans [18], 8 mm; in the assay with Aspergillus niger [12], 8 mm; in the assay on Klebsiella pneumoniae [16], 7 mm; in the assay on Vibrio cholerae [17], 7 mm. Besides, the MIC in the assay with Candida tropicalis [2] and with Aspergillus niger [4] was 1000 µg/mL (≈ 2150 µM) in each case.
As for GENTAMICIN, the MIC in the assay on Klebsiella pneumoniae [19] worked out at 250 µg/mL; with Vibrio cholerae [20], 2000 µg/mL; in the assay with Pseudomonas aeruginosa [21], 4000 µg/mL; in the assay on Escherichia coli [22], 500 µg/mL; in the assay with Shigella dysenteriae [23] it was 2000 µg/mL; in the assay with Staphylococcus aureus [24], 1000 µg/mL.
As to `Nc1ccc(C2(c3ccc(N)c(Br)c3)C(=O)c3ccccc3C2=O)cc1Br`, the “growth inhibition (GI)” value in the assay with Pseudomonas aeruginosa [5], in the assay on Micrococcus luteus, with Shigella dysenteriae [8] and in the assay with Staphylococcus aureus [9] was “inactive” each time. For the same compound, the zone of inhibition at 1000 µg/mL amounted to 8 mm with Bacillus pumilus [6]; 8 mm in the assay on Escherichia coli [7]; 8 mm in the assay with Cryptococcus neoformans [18]; 8 mm in the assay on Candida tropicalis [10]; 10 mm with Candida albicans [11]; 12 mm with Aspergillus niger [12]. The figures for the zone of inhibition at 1000 µg/mL with Klebsiella pneumoniae [16] and in the assay on Vibrio cholerae [17] were 6 mm and 9 mm, respectively. Also, the MIC in the assay with Cryptococcus neoformans [1] amounted to 1500 µg/mL (≈ 3090 µM); in the assay with Candida tropicalis [2], 2000 µg/mL (≈ 4110 µM); with Candida albicans [3], 2500 µg/mL (≈ 5140 µM); with Aspergillus niger [4], 1000 µg/mL (≈ 2060 µM).
`COc1cc(C2(Nc3cc(Cl)ccc3OC)C(=O)c3ccccc3C2=O)c(Cl)cc1N`: the “growth inhibition (GI)” value in the assay with Pseudomonas aeruginosa [5], in the assay on Bacillus pumilus [6], with Escherichia coli [7], with Shigella dysenteriae [8], in the assay on Staphylococcus aureus [9] and in the assay with Klebsiella pneumoniae [16] was “inactive” in each case. The zone of inhibition at 1000 µg/mL in the assay on Micrococcus luteus (ATCC 9341, 24 h, read-out: DIZ) was determined as 9 mm; with Vibrio cholerae [17], 8 mm. Further, the minimal inhibitory concentration (MIC) in the assay with Vibrio cholerae [20] (Vibrio cholerae, 759, 24 h) worked out at 32000 µg/mL (≈ 70000 µM). Further, the outcome in the assay with Vibrio cholerae [14] and in the assay with Escherichia coli [15] was Active.
As to `CC1(C)S[C@@H]2[C@H](NC(=O)[C@H](N)c3ccc(O)cc3)C(=O)N2[C@H]1C(=O)O` [AMOXICILLIN], the minimum inhibitory concentration (MIC) with Bacillus pumilus [25] is 500 µg/mL (≈ 1370 µM); with Shigella dysenteriae [23] (Shigella dysenteriae, 15, 24 h), 10000 µg/mL (≈ 27400 µM); in the assay with Staphylococcus aureus [24] (Staphylococcus aureus, 29737, 24 h), 500 µg/mL (≈ 1370 µM).
